The nature of this assay: HIV cell culture assay: MT-2 cells and 293T cells were obtained from the NIH AIDS Research and Reference Reagent Program. MT-2 cells were propagated in RPMI 1640 media supplemented with 10% heat inactivated fetal bovine serum, 100 μg/mL penicillin G and up to 100 units/mL streptomycin. The 293T cells were propagated in DMEM media supplemented with 10% heat inactivated fetal bovine serum (FBS), 100 units/mL penicillin G and 100 μg/mL streptomycin. The proviral DNA clone of NL4-3 was obtained from the NIH AIDS Research and Reference Reagent Program. A recombinant NL4-3 virus, in which a section of the nef gene from NL4-3 was replaced with the Renilla luciferase gene, was used as a reference virus. In addition, residue Gag P373 was converted to P373S. Briefly, the recombinant virus was prepared by transfection of the altered proviral clone of NL4-3. Transfections were performed in 293T cells using LipofectAMINE PLUS from Invitrogen (Carlsbad, Calif.), according to manufacturer's instruction. The virus was titered in MT-2 cells using luciferase enzyme activity as a marker. Luciferase was quantitated using the Dual Luciferase kit from Promega (Madison, Wis.), with modifications to the manufacturer's protocol. The diluted Passive Lysis solution was pre-mixed with the re-suspended Luciferase Assay Reagent and the re-suspended Stop & Glo Substrate (2:1:1 ratio). Fifty (50) μL of the mixture was added to each aspirated well on assay plates and luciferase activity was measured immediately on a Wallac TriLux (Perkin-Elmer). Antiviral activities of inhibitors toward the recombinant virus were quantified by measuring luciferase activity in cells infected for 4-5 days with NLRluc recombinants in the presence serial dilutions of the inhibitor. In kind it is cell-based.

Structures are written as SMILES.

As to `C=C(C)[C@@H]1CC[C@]2(c3ncn(CCN4CCS(=O)(=O)CC4)n3)CC[C@]3(C)[C@H](CC[C@@H]4[C@@]5(C)CC=C(c6ccc(C(=O)O)cc6)C(C)(C)[C@@H]5CC[C@]43C)[C@@H]12`, the EC50 was over 100 nM.

Consider `C=C(C)[C@@H]1CC[C@]2(c3nnc(CN(C)C)o3)CC[C@]3(C)[C@H](CC[C@@H]4[C@@]5(C)CC=C(c6ccc(C(=O)O)cc6)C(C)(C)[C@@H]5CC[C@]43C)[C@@H]12`, for which the EC50 was over 100 nM.

With `C=C(C)[C@@H]1CC[C@]2(c3nnco3)CC[C@]3(C)[C@H](CC[C@@H]4[C@@]5(C)CC=C(c6ccc(C(=O)O)cc6)C(C)(C)[C@@H]5CC[C@]43C)[C@@H]12`, the EC50 was over 100 nM.

For `C=C(C)[C@@H]1CC[C@]2(C#Cc3ccsc3-c3nnn[nH]3)CC[C@]3(C)[C@H](CC[C@@H]4[C@@]5(C)CC=C(c6ccc(C(=O)O)cc6)C(C)(C)[C@@H]5CC[C@]43C)[C@@H]12`, the EC50 was under 100 nM.

With `C=C(C)[C@@H]1CC[C@]2(c3ncnn3C)CC[C@]3(C)[C@H](CC[C@@H]4[C@@]5(C)CC=C(c6ccc(C(=O)O)cc6)C(C)(C)[C@@H]5CC[C@]43C)[C@@H]12`, the EC50 is over 100 nM.

Consider `C=C(C)[C@@H]1CC[C@]2(c3nc[nH]n3)CC[C@]3(C)[C@H](CC[C@@H]4[C@@]5(C)CC=C(c6ccc(C(=O)O)cc6)C(C)(C)[C@@H]5CC[C@]43C)[C@@H]12`, for which the EC50 is over 100 nM.

Usually EC50 stands for the concentration giving half of the maximal effect.

Values taken from ChEMBL document CHEMBL5725469, “C17-aryl substituted betulinic acid analogs” (2018).
